13 sequences from patent publication US20170354726A1, “CANCER PEPTIDE VACCINE” (Green Peptide Co., Ltd., priority 2010, published 2017) can be followed below.

Ends that are not written are not given here.

Holding throughout (format): in vivo, human
The test system of assay [1] is CTL in PBMC of glioblastoma patients, HLA-A24 positive target cells presenting the administered peptide. Briefly: Measurement of CTL activity (IFN-γ) in PBMC of glioblastoma patients. To be noted: brain tumor; for CTL (IFN) Post Average: patients given this peptide. As to the method:
(§1) PBMC was separated from the peripheral blood obtained by blood collection at the start of administration and at the end of each course for lyophilization, and CTL activity was measured using all PBMC by a known method (Hida N, Maeda Y, Katagiri K, Takasu H, Harada M, Itoh K., A simple culture protocol to detect peptide-specific cytotoxic T lymphocyte precursors in circulation. Cancer Immunol Immunotherapy 2002; 51: 219-228 (incorporated herein by reference)) after the end of administration. First, PBMC was cultured in the presence of each administered peptide for 2 weeks, and the PBMC was co-cultured with HLA-A24 positive target cells presenting the administered peptide via HLA molecules. Then, CTL activity was measured by measuring IFN-γ secreted into the culture supernatant by the reaction of CTL in PBMC with the target cells. The co-culture was performed under 4 independent conditions for each peptide; 4 values were obtained for each peptide for each PBMC obtained by each blood collection; and the total of the 4 values was used as a value (pg/mL) of IFN-γ for analysis to be described later.
(§2) Similarly, for glioblastoma patients, the average of IFN-γ values or FIU was calculated in the 1 mg administration group (level I) and the 3 mg administration group (level II) to analyze the relationship between the dose and the immunological response.
(§3) Similarly, for glioblastoma patients, the averages of IFN-γ values and FIU obtained from the plasma or PBMC obtained at the end of each course from before administration to the 2nd course were calculated in the 1 mg administration group (level I) and the group of administration of 3 mg or more (level II) to analyze the relationship between the number of times of administration and the immunological response. The “Number of times of administration” in the table and the figure is the total number of times of administration at the end of each course, and the number of times of administration per course is 6.

Assay [2] concerns CTL in PBMC of HRPC patients, HLA-A24 positive target cells presenting the administered peptide. Briefly: Measurement of CTL activity (IFN-γ) in PBMC of HRPC patients. Particulars: for reactivity of CTL (and antibody) to the peptide, in words: HRPC patients; for IFN post average/average no. of times of administration / CTL (IFN) Post Average: prostate cancer; for CTL (IFN) Post Average: patients given this peptide. As to the method:
as §1
(§4) For HRPC patients, the average of IFN-γ values or FIU was calculated in the 1 mg administration group (level I), the 3 mg administration group (level II), and the 5 mg administration group (level III) to analyze the relationship between the dose and the immunological response.
(§5) For HRPC patients, the averages of IFN-γ values and FIU obtained from the plasma or PBMC obtained at the end of each course from before administration to the 6th course were calculated in the 1 mg administration group and the group of administration of 3 mg or more to analyze the relationship between the number of times of administration and the immunological response. The “Number of times of administration” in the table and the figure is the total number of times of administration at the end of each course, and the number of times of administration per course is 6.
Since the initial peptide reselection was performed at the end of the 1st course, the averages of measurements after the reselection (values measured at the end of the 2nd course and later) are shown in the table and the figure. The “Number of times of administration” in the table and the figure is the total number of times of administration at the end of each course, and the number of times of administration per course is 6.

Assay [3] concerns antibody to a peptide in the peripheral blood of HRPC patients. Briefly: Antibody to peptide in plasma (FIU, Luminex) of HRPC patients. Particulars: prostate cancer, patients given this peptide. Here is the method: (§6) More specifically, a carrier was prepared in which each peptide was immobilized on the surface of micro beads (Luminex Corporation) after dissolving the powdered peptide in DMSO. Subsequently, plasma (heparin blood) obtained by blood collection from the patient was mixed with the immobilized carrier to react the antibody contained in the plasma with the peptide immobilized on the carrier. Then, the immobilized carrier was recovered after reaction; the antibody in the peripheral blood of the patient, bound to the peptide on the support was fluorescently labeled using a biotinylated anti-human antibody (Vector Corporation) and an avidinylated fluorescent dye (Streptavidin-PE, Invitrogen Corporation); and the fluorescence intensity (FIU) thereof was measured.
as §4, §5

Assay [4] relates to antibody to a peptide in the peripheral blood of glioblastoma patients. Briefly: Antibody to peptide in plasma (FIU, Luminex) of glioblastoma patients. To be noted: brain tumor, patients given this peptide. As to the method:
as §6, with “An antibody to a peptide in the peripheral blood of patient was measured using a multiplex technology provided by Luminex Corporation by a method as described in Japanese Patent No. 3960614 (incorporated herein by reference) using each of the powdered peptides of SEQ ID NOS: 1 to 14. More” for “More”
as §2, §3

Turning to AYDFLYNYL [GP-113], in assay [1], the “IFN post average/average no. of times of administration” value is listed as 357 and the “CTL (IFN) Post Average” value is 5,139 pg/mL. In assay [2], the “reactivity of CTL (and antibody) to the peptide, in words” value (“reactivity of CTL (and antibody)” for short) is “low values of CTL activation”; the “IFN post average/average no. of times of administration” value was 67; the “CTL (IFN) Post Average” value came out at 600 pg/mL. In addition, the “Ab Post Average (FIU after peptide administration)” value (shortened to “Ab Post Average”) in assay [3] was 207 FIU. Besides, in assay [4], the “Ab Post Average” value is recorded as 67 FIU.
Consider DYLRSVLEDF [GP-105], for which the “IFN post average/average no. of times of administration” value in assay [1] is reported as 180; in assay [2], 229. For the same sequence, the “CTL (IFN) Post Average” value in assay [1] is recorded as 2,706 pg/mL; in assay [2], 5,274 pg/mL. Further, the “Ab Post Average” value in assay [3] is 13,096 FIU; in assay [4], 3,969 FIU.
Consider DYSARWNEI [GP-112], for which, in assay [1], the “IFN post average/average no. of times of administration” value is 92 and the “CTL (IFN) Post Average” value was 1,308 pg/mL. For the same sequence, in assay [2], the “reactivity of CTL (and antibody)” value was “low values of CTL activation”; the “IFN post average/average no. of times of administration” value came out at 76; the “CTL (IFN) Post Average” value came to 459 pg/mL. Besides, the “Ab Post Average” value in assay [3] amounted to 53 FIU. For the same sequence, the “Ab Post Average” value in assay [4] is reported as 1,338 FIU.
On to DYVREHKDNI [GP-101], for which, in assay [2], the “reactivity of CTL (and antibody)” value is given as “lower in the CTL reactivity than other peptides”; the “IFN post average/average no. of times of administration” value came to 7; the “CTL (IFN) Post Average” value stood at 129 pg/mL. The “Ab Post Average” value in assay [3] is 16,491 FIU.
As to HYRKWIKDTI [GP-109], in assay [2], the “reactivity of CTL (and antibody)” value is reported as “lowly increased the CTL activity”; the “IFN post average/average no. of times of administration” value is listed as 22; the “CTL (IFN) Post Average” value is 494 pg/mL. For the same sequence, in assay [3], the “Ab Post Average” value is 11,672 FIU.
For HYTNASDGL [GP-103], in assay [2], the “reactivity of CTL (and antibody)” value was “did not increase the reactivity of antibody and CTL”; the “IFN post average/average no. of times of administration” value turned out to be 8; the “CTL (IFN) Post Average” value worked out at 100 pg/mL. In assay [3], the “Ab Post Average” value worked out at 22 FIU.
Regarding LYAWEPSFL [GP-106], the “IFN post average/average no. of times of administration” value in assay [1] is 174; in assay [2] it was 841. Also, the figures for the “CTL (IFN) Post Average” value in assay [1] and in assay [2] were 3,134 pg/mL and 22,699 pg/mL, respectively. For the same sequence, the “Ab Post Average” value in assay [3] was 20,080 FIU; in assay [4], 297 FIU.
Regarding LYCESVHNF [GP-108], in assay [2], the “IFN post average/average no. of times of administration” value amounted to 72 and the “CTL (IFN) Post Average” value was 2,209 pg/mL. In addition, in assay [3], the “Ab Post Average” value is 19,039 FIU.
For NYSVRYRPGL [GP-107], in assay [1], the “IFN post average/average no. of times of administration” value turned out to be 8 and the “CTL (IFN) Post Average” value was 151 pg/mL. Also, in assay [2], the “reactivity of CTL (and antibody)” value was “lowly increased the CTL activity”; the “IFN post average/average no. of times of administration” value stood at 27; the “CTL (IFN) Post Average” value turned out to be 370 pg/mL. In addition, in assay [3], the “Ab Post Average” value was 2,888 FIU. In addition, the “Ab Post Average” value in assay [4] stood at 302 FIU.
Turning to RYLTQETNKV [GP-111], the results for the “IFN post average/average no. of times of administration” value in assay [1] and in assay [2] were 400 and 207, respectively. Moreover, the “CTL (IFN) Post Average” value in assay [1] is 3,001 pg/mL; in assay [2], 5,576 pg/mL. For the same sequence, the “Ab Post Average” value was 11,125 FIU in assay [3] and 241 FIU in assay [4].
Consider TFDYLRSVL [GP-104], for which the “IFN post average/average no. of times of administration” value in assay [1] was 187; in assay [2] it was 144. The “CTL (IFN) Post Average” value in assay [1] is recorded as 2,986 pg/mL; in assay [2], 3,629 pg/mL. In addition, the “Ab Post Average” value in assay [3] is given as 11,538 FIU; in assay [4] it was 920 FIU.
Regarding TYSVSFDSL [GP-110], in assay [2], the “reactivity of CTL (and antibody)” value is given as “increased the CTL value”; the “IFN post average/average no. of times of administration” value is reported as 365; the “CTL (IFN) Post Average” value is given as 2,190 pg/mL. The “Ab Post Average” value in assay [3] is reported as 310 FIU.
For the sequence VYDYNCHVDL [GP-114], the entries for the “IFN post average/average no. of times of administration” value in assay [1] and in assay [2] were 82 and 547, respectively. For the same sequence, the “CTL (IFN) Post Average” value is given as 821 pg/mL in assay [1] and 4,592 pg/mL in assay [2]. The entries for the “Ab Post Average” value in assay [3] and in assay [4] were 10,557 FIU and 297 FIU, respectively.
